This passage reports melting point results from a melting point compilation (Tetko et al.; mined from patent text by program, amines drawn as free bases though some values may be those of a salt).

What is called melting point is the temperature of the solid-liquid transition.

Bounds are passed on as bounds.

Compound `CCCc1nn(-c2ccc(C(F)(F)F)cn2)cc1COc1ccc(CCC(=O)O)c(OC)c1` yielded a melting point of 153 to 154 °C.

Regarding `FC(F)(F)CNC(=S)Nc1cccc(COC(=S)NCC(F)(F)F)n1`, the melting point fell in the range of 173 to 175 °C.

`CC(=O)Oc1c(C)cc2c(c1C)C(C)CN2C(=O)C(C)C` (configuration not stated) gave a melting point of 118 to 120 °C.

Compound `CCCCc1ncc(/C=C(/CO)Cc2cccs2)n1Cc1ccccc1Cl` returned a melting point of 114 to 115 °C.

Turning to `COc1ccccc1C(=O)OC(=C1C(=O)N(C(N)=O)c2cc(Cl)c(F)cc21)c1cccs1`, the melting point lay in the range of 219 to 221 °C.

For the compound `CC(O)c1cc(NC(=O)OC(C)(C)C)ccc1NC(=O)OC(C)(C)C` (configuration not stated), the melting point came to 189 °C.

For `CC(=O)N1CC(CCN2CC=C(c3ccccc3)CC2)c2cc3c(cc21)OCO3` (configuration not stated), the melting point lay in the range of 90 to 91 °C.

As for `CCC(C)S(=O)(=O)c1cc(C(F)(F)F)ccc1C(=O)c1cnoc1C1CC1` (configuration not stated), the melting point was 89 to 91 °C.

Consider `Fc1cccc(F)c1-c1nc2ccccc2n1Cc1ccccc1`, for which the melting point came to 124 °C.

Compound `COC(=O)N[C@H](C(=O)O)C(C)(C)C` yielded a melting point of 106 to 108 °C.

Compound `O=C1NCCN1CC#CCN1CCCC1` showed a melting point of 71 to 75 °C.

`COc1ccc(N2CCN(c3ccc(-n4c(C)c[nH]c4=O)cc3)CC2)cc1` gave a melting point above 300 °C.

In turn, `CC1(C)CCOc2cc(C(=O)O)ccc21` came in with a melting point of 173 to 174 °C.

`O=C1CCCc2onc(-c3ccccc3[N+](=O)[O-])c21` returned a melting point of 125 to 127 °C.

Compound `CNC(=O)c1cc(O)cc2c1N(C)C1N(C)CCC21C` (configuration not stated) showed a melting point of 202 to 204 °C.

In turn, `CC(C)Oc1ccc2c(n1)C(C(=O)c1cccs1)C(=O)N2C(N)=O` (configuration not stated) had a melting point of 194 to 196 °C.

`CC(=CC(=O)O)Sc1c[nH]c2ccccc12` yielded a melting point of 201 to 202 °C.

`O=C(Nc1ccc(-n2nc(C(F)(F)F)cc2C(F)(F)F)cc1)C1=CCCC1` returned a melting point of 174 to 175 °C.

`CCCCc1c(Cl)nc(O)nc1Cl`: the melting point fell in the range of 73 to 75 °C.

Regarding `CS(=O)(=O)c1ccc(C2=C(c3ccc(F)cc3)CC(CF)(CF)C2)cc1`, the melting point is 134 to 135 °C.

Regarding `O=C(O)CC1(CCCCCCCCCCCC2(C(=O)O)CC2)CC1`, the melting point lay in the range of 75.3 to 78.9 °C.

Compound `Cn1cnc(COc2nc3c(cc2C(C)(C)C)nnn3-c2ccccc2)n1` yielded a melting point of 179 to 180 °C.

Compound `CC(=O)NC(C(=O)O)c1ccc2occc2c1` (configuration not stated) showed a melting point of 230 to 232 °C.

Compound `O=C(Nc1ccccc1)c1ccccn1` showed a melting point of 75 to 77 °C.

`OCc1cnn(C(c2ccccc2)(c2ccccc2)c2ccccc2)c1` displayed a melting point of 181 to 184 °C.

`CCOc1nc2c(nc1C(=O)O)c(C)nn2CC`: the melting point stood at 172 °C.

The compound `Cc1ccc(-c2cncnc2N)cc1` displayed a melting point of 166 to 167 °C.

On to `COc1ccc(-c2nc(SC(C)C)[nH]c2-c2ccncc2)cc1`, for which the melting point was in the range of 206 to 210 °C.

In turn, `COc1ccc(COc2cccc(OC)c2C(C)=O)cc1` registered a melting point of 105 to 107 °C.

In turn, `O=c1ccc2c(-c3ccccc3)cc(N3CCN(Cc4ccccc4)CC3)n2cc1` came in with a melting point of 157 °C.

On to `COc1ccc(C(=O)Nc2c(Cl)cncc2Cl)c2c1OC(C)(C)C=C2`, for which the melting point was 174 to 178 °C.

For `COc1ccc(C(=O)O)cc1NC(=O)C(CS)Cc1ccccc1` (configuration not stated), the melting point lay in the range of 188 to 192 °C.

Compound `Cc1ccc(-c2cc(C=O)nn2-c2ccc(S(N)(=O)=O)cc2)cc1` showed a melting point of 196 to 198 °C.

Compound `Cc1nn(CC(C)(C)O)c(-c2ccc(F)cc2)c1-c1ccc2c(c1)NC(=O)CO2` registered a melting point of 166 to 167 °C.

The compound `CCCCCn1c2ccccc2c2cc(C(=O)N3CCOCC3)ccc21` had a melting point of 99 to 101 °C.

In turn, `NC1=C2C=NN=C2N(c2ccccc2)CN1Cc1ccccc1` had a melting point of 167 to 168 °C.

In the case of `O=CC(c1ccccc1)c1nc(-c2ccncc2)cs1` (configuration not stated), the melting point was in the range of 163 to 164 °C.
